In ChEMBL document CHEMBL1201862, “PubChem BioAssay data set” (2004):
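Where inhibition never reached the appropriate level, the endpoint shown equals the highest concentration tested. Otherwise, values were interpolated linearly from a five-concentration, 48-hour dose response in 96-well plates. GI50 is the concentration that inhibits growth by half.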 Calls of active or inactive are those of the source. Cut-off read from the data, not from the text of the source: active = GI50 up to about 1.1 µM and inactive = higher.

Key:
Assay in all cases: NCI anticancer screen, dose series, 48 h
[1] = test system: A549
[2] = test system: BT-549
[3] = test system: CCRF-CEM
[4] = test system: COLO 205
[5] = test system: HCC 2998
[6] = test system: HCT-116
[7] = test system: HOP-62
[8] = test system: HOP-92
[9] = test system: MCF7
[10] = test system: NCI-H23
[11] = test system: NCI/ADR-RES
[12] = test system: OVCAR-3
[13] = test system: RPMI-8226
[14] = test system: RXF 393
[15] = test system: SF-295
[16] = test system: SK-MEL-28
[17] = test system: SK-MEL-2
[18] = test system: SK-MEL-5
[19] = test system: U-251

Cn1c2ccc3cc2c(=S)c2cc(ccc21)OCCOCCOCCOCCOCCOCCO3
GI50 [1]: > 10 µM (inactive) | GI50 [2]: > 10 µM (inactive) | GI50 [3]: > 10 µM (inactive) | GI50 [4]: > 10 µM (inactive) | GI50 [5]: > 10 µM (inactive) | GI50 [6]: > 10 µM (inactive) | GI50 [7]: > 10 µM (inactive) | GI50 [8]: > 10 µM (inactive) | GI50 [9]: > 10 µM (inactive) | GI50 [10]: > 10 µM (inactive) | GI50 [11]: > 10 µM (inactive) | GI50 [12]: > 10 µM (inactive) | GI50 [13]: > 10 µM (inactive) | GI50 [14]: > 10 µM (inactive) | GI50 [15]: > 10 µM (inactive) | GI50 [16]: > 10 µM (inactive) | GI50 [17]: > 10 µM (inactive) | GI50 [18]: > 10 µM (inactive) | GI50 [19]: > 10 µM (inactive)

Nc1nc(N)c2ncn(Cc3c(Cl)cccc3Cl)c2n1
GI50 [1]: > 100 µM (inactive) | GI50 [2]: > 100 µM (inactive) | GI50 [3]: > 100 µM (inactive) | GI50 [4]: > 100 µM (inactive) | GI50 [5]: > 100 µM (inactive) | GI50 [6]: > 100 µM (inactive) | GI50 [7]: > 100 µM (inactive) | GI50 [8]: > 100 µM (inactive) | GI50 [9]: > 100 µM (inactive) | GI50 [10]: > 100 µM (inactive) | GI50 [11]: 50.5 µM (inactive) | GI50 [12]: > 100 µM (inactive) | GI50 [13]: > 100 µM (inactive) | GI50 [14]: > 100 µM (inactive) | GI50 [15]: > 100 µM (inactive) | GI50 [16]: > 100 µM (inactive) | GI50 [17]: > 100 µM (inactive) | GI50 [18]: > 100 µM (inactive) | GI50 [19]: > 100 µM (inactive)

Nc1ncnc2c1ccn2C/C=C\CO
GI50 [1]: > 100 µM (inactive) | GI50 [2]: > 100 µM (inactive) | GI50 [3]: > 100 µM (inactive) | GI50 [4]: > 100 µM (inactive) | GI50 [5]: > 100 µM (inactive) | GI50 [6]: > 100 µM (inactive) | GI50 [7]: > 100 µM (inactive) | GI50 [8]: > 100 µM (inactive) | GI50 [9]: > 100 µM (inactive) | GI50 [10]: > 100 µM (inactive) | GI50 [11]: > 100 µM (inactive) | GI50 [12]: > 100 µM (inactive) | GI50 [13]: > 100 µM (inactive) | GI50 [14]: > 100 µM (inactive) | GI50 [15]: > 100 µM (inactive) | GI50 [16]: > 100 µM (inactive) | GI50 [17]: > 100 µM (inactive) | GI50 [18]: > 100 µM (inactive) | GI50 [19]: > 100 µM (inactive)

CC(=O)CCCCn1c(=O)c2c(nc(Br)n2C)n(C)c1=O
GI50 [1]: > 100 µM (inactive) | GI50 [2]: > 100 µM (inactive) | GI50 [3]: > 100 µM (inactive) | GI50 [4]: > 100 µM (inactive) | GI50 [5]: 95.3 µM (inactive) | GI50 [6]: > 100 µM (inactive) | GI50 [7]: > 100 µM (inactive) | GI50 [8]: 11.7 µM (inactive) | GI50 [9]: > 100 µM (inactive) | GI50 [10]: > 100 µM (inactive) | GI50 [11]: > 100 µM (inactive) | GI50 [12]: > 100 µM (inactive) | GI50 [13]: > 100 µM (inactive) | GI50 [14]: > 100 µM (inactive) | GI50 [15]: > 100 µM (inactive) | GI50 [16]: > 100 µM (inactive) | GI50 [17]: > 100 µM (inactive) | GI50 [18]: > 100 µM (inactive) | GI50 [19]: > 100 µM (inactive)

CCOC(=O)c1c(-c2ccc(Cl)cc2)c(C#N)c(=S)n(C2OC(COC(C)=O)C(OC(C)=O)C(OC(C)=O)C2OC(C)=O)c1-c1ccccc1 (stereo not drawn)
GI50 [1]: > 100 µM (inactive) | GI50 [2]: > 100 µM (inactive) | GI50 [3]: > 100 µM (inactive) | GI50 [4]: > 100 µM (inactive) | GI50 [5]: > 100 µM (inactive) | GI50 [6]: > 100 µM (inactive) | GI50 [7]: > 100 µM (inactive) | GI50 [8]: 12.7 µM (inactive) | GI50 [9]: > 100 µM (inactive) | GI50 [10]: > 100 µM (inactive) | GI50 [11]: > 100 µM (inactive) | GI50 [12]: > 100 µM (inactive) | GI50 [13]: > 100 µM (inactive) | GI50 [14]: > 100 µM (inactive) | GI50 [15]: > 100 µM (inactive) | GI50 [16]: > 100 µM (inactive) | GI50 [17]: > 100 µM (inactive) | GI50 [18]: 28 µM (inactive) | GI50 [19]: > 100 µM (inactive)

O=C1/C(=C/c2ccncc2)C(n2cccc2)c2c(Br)sc(Br)c21 (stereo not drawn)
GI50 [1]: 14.9 µM (inactive) | GI50 [2]: 3.07 µM (inactive) | GI50 [3]: 0.671 µM (active) | GI50 [4]: 10.4 µM (inactive) | GI50 [5]: 1.88 µM (inactive) | GI50 [6]: 2.79 µM (inactive) | GI50 [7]: 3.03 µM (inactive) | GI50 [8]: 2.86 µM (inactive) | GI50 [9]: 3.85 µM (inactive) | GI50 [10]: 2.56 µM (inactive) | GI50 [11]: 14.3 µM (inactive) | GI50 [12]: 1.87 µM (inactive) | GI50 [13]: 2.02 µM (inactive) | GI50 [14]: 1.88 µM (inactive) | GI50 [15]: 13.3 µM (inactive) | GI50 [16]: 2.65 µM (inactive) | GI50 [17]: 2.46 µM (inactive) | GI50 [18]: 13.7 µM (inactive) | GI50 [19]: 2.11 µM (inactive)

O=[N+]([O-])c1ccc(Cl)cc1/C=N/C12CC3CC(CC(C3)C1)C2
GI50 [1]: > 96.8 µM (inactive) | GI50 [2]: > 55.7 µM (inactive) | GI50 [3]: 5.64 µM (inactive) | GI50 [4]: 45 µM (inactive) | GI50 [5]: > 82.4 µM (inactive) | GI50 [6]: 5.24 µM (inactive) | GI50 [7]: 60.8 µM (inactive) | GI50 [8]: 79.1 µM (inactive) | GI50 [9]: 31.3 µM (inactive) | GI50 [10]: 50.9 µM (inactive) | GI50 [11]: 30.1 µM (inactive) | GI50 [12]: 46.9 µM (inactive) | GI50 [13]: 20.2 µM (inactive) | GI50 [14]: 53.1 µM (inactive) | GI50 [15]: 57.3 µM (inactive) | GI50 [16]: 76.9 µM (inactive) | GI50 [17]: > 66.8 µM (inactive) | GI50 [18]: 56.6 µM (inactive) | GI50 [19]: 33.2 µM (inactive)
